{"source": "patent EP0462621A2", "about": "“Use of particular compounds for manufacture of pharmaceutical formulations for treatment against various parasites, mycoplasmas, other indications and other infections” (Prendergast, Patrick Thomas, priority 1990, dated 1991)", "key": {"[1]": {"tested_on": "T. cruzi", "experiment": "T. cruzi intracellular amastigote (AM) in-vitro screen", "type": "cell-based", "quoted_text": "Dividing populations can be cultivated in muscle cells, fibroblasts and macrophages, following infection with trypomastigotes. After the initial infection, there is normally a period of 4-5 days during which the amastigotes divide before transforming, via the epimastigote stage, back to trypomastigotes which escape from the cell. Drug activity is measured during this 4-5 day period. A dividing host cell population, low infection rate, and the presence of trypomastigotes in the overlay can complicate the interpretation of results.\nIntracellular amastigote models can use a range of muscle (skeletal and cardiac) and fibroblast (e.g. HeLa, HePa) cell lines, macrophages, and chick embryo cells. […] To overcome the problems of overgrowth of the monolayer and a low percentage of infected cells, often associated with the use of cell lines, irradiated rat L6 myoblasts are used."}, "[2]": {"tested_on": "B lymphocytes", "experiment": "Lymphocyte blastogenesis assay, B lymphocytes (PWM)", "type": "cell-based, human", "description": "(§1) T and B lymphocytes from normal human donors were incubated for 30 minutes at various dose levels of the compounds indicated. The lymphocytes were added in triplicate wells in gentamicin and phytohemagglutinin (PHA) (a T cell mitogen), pokeweed mitogen (PWM) (a B cell mitogen) and allogeneic mononuclear cells (mixed leukocyte cultures; MLC) or media containing the above additives. The lymphocyte blastogenesis assay is described in detail below.\nThe data are represented as the mean of the three replicates. The results are presented in Charts la(e) (i) and la(e) (ii) (Figs. 1 and 2). […] A reduction of both T lymphocytes' abilities to proliferate was obtained when 100 u.M or greater concentrations of IPA was added to the cell cultures. Proliferative activity of T lymphocytes by 25% at the 30 u.M concentration of IPA in the experiment.\n(§2) • 1. Mononuclear cells are separated from whole blood by differential centrifugation using a synthetic separation medium, or are thawed from a cryopreserved preparation. The cells are washed and resuspended in media (RPMI - 1640, L-Glutamine 2mM, Herpes Buffer 25mM, Gentamicin 50 ug/ml, Human AB Serum-heat inactivated (56°, 30°) 20%). • 2. A viable cell count is determined. • 3. Cell concentration is adjusted to 2 x 10^6 /ml in media. • 4. The cell suspension is added to wells of a 96-well flat bottom plate in 0.1 ml aliquots (2 x 10^5 cells). • 5. The selected mitogens and/or antigens (in media without serum) are added to the cells in the wells also in 0.1 ml aliquots. • 6. The cultures are incubated for 3-7 days (depending upon the mitogen or antigen) at 37° C in a humidified 5% C02 atmosphere. • 7. Six to eight hours before termination of cultures 0.05 ml (1 µCi) of ^3HTdR sp. act 6.7 Ci/mM (20 µCi/ml stock) is added to each well. • 8. At termination of cultures the cells are harvested onto strips of scintillation-grade fibreglass paper using a multiple sample harvester. • 9. Perforated disks from the fibreglass paper of the harvested cultures are placed each into scintillation vials to which is then added 5 ml of toluene based scintillation cocktail. • 10. The vials are counted in a liquid scintillation counter for one minute where the amount of incorporated ^3HTdR is determined.\nnet CPM = xCPM of mitogen/antigen cultures - xCPM of media cultures."}, "[3]": {"experiment": "Solubility of IPA in water", "type": "physicochemical"}, "[4]": {"experiment": "Case study one: AIDS patient treated with IPA", "type": "in vivo, human", "details": "IPA from February 1989", "description": "A case study of an AIDS patient one, was conducted. Patient one began treatment with IPA in February 1989, while in a nearly moribund condition, suffering from depression, exhaustion, bronchial infection, severe diarrhoea, severe weight loss (weight in February was 98 lbs.), complete loss of appetite and spiked fever. […] By March 21, 1989, patient one stated that they felt cured and abruptly (unilaterally) stopped taking IPA, resulting in dramatic deterioration of their condition. In May, 1989, patient one resumed IPA therapy, and experienced dramatic recovery. At the end of May, 1989, patient one again stopped taking IPA, and their condition again deteriorated. Again IPA treatment was restarted, and patient one's condition improved. In early June, 1989, patient one again stopped IPA therapy and died several weeks later.\nThe study concluded that patient one would have apparently enjoyed appreciable therapeutic benefits from IPA if they had conscientiously and continuously received IPA medication."}, "[5]": {"tested_on": "human mononuclear cells", "experiment": "Mixed leukocyte culture (MLC) reaction", "type": "cell-based", "description": "as §1\nMixed leukocyte culture (MLC) reactions may be used to evaluate the ability of human mononuclear cells to recognize and immunologically react to human histocompatibility antigen (measurement of the ability of the cells to mount a primary immune response to an antigen). Cultures of one set of human mononuclear cells were reacted with mononuclear cells from an unrelated donor in lymphocyte blastogenesis assays and the proliferation of the first set of cells was quantitated. The results are presented in Charts la(e) (v) and la(e) (vi) (Figs. 5 and 6). Again, as with lymphocyte blastogenesis with mitogens, the MLC was run in replicates of three and a mean value obtained.\nas §2, with “Six to eight hours before termination of cultures 0.05 ml (1 µCi) of ^3HTdR sp. act 6.7 Ci/mM (20 µCi/ml stock) is added to each well. • 8. At termination of cultures the cells are harvested onto strips of scintillation-grade fibreglass paper using a multiple sample harvester. • 9. Perforated disks from the fibreglass paper of the harvested cultures are placed each into scintillation vials to which is then added 5 ml of toluene based scintillation cocktail. • 10.” left out"}, "[6]": {"tested_on": "HIV-1", "experiment": "In vitro HIV-1 infection of H9 cells, HIV-1 P24 antigen capture test", "type": "cell-based", "details": "doses of 3.75 µM or higher, Figure 13", "description": "In vitro infection of H9 cells was carried out as described previously. Briefly, 5x10^6 H9 cells were treated with DEAE-dextran (25 µg/mt) for 20 min. Cells were then infected with 1 ml of cell free HIV-1 (1 X1 05 RT unit) for 1 hr at 37° C. Cells were then washed and incubated for 12 days in the absence or presence of various concentrations of IPA. Every 3-4 days, the medium was replaced with fresh medium containing appropriate concentrations of drug. At various days following infection, the presence of HIV-1 in the supernatant was monitored by measuring HIV-1 P24 using the antigen capture test (DuPont@, Wilmington, DE).\nAn investigation of the effect of IPA on in-vitro HIV-1 infection of H9 cells, a T cell line, was performed. The drug was added following 1 hr adsorption of the virus, and was maintained in the culture medium throughout the incubation period."}, "[7]": {"tested_on": "HIV", "experiment": "HIV production from H9 cells persistently infected with HIV, RT activity", "type": "cell-based", "description": "To examine the effect of IPA on the production of HIV-1 in H9 cells persistently infected with HIV-1, 5x10^6 HIV-1-infected H9 cells were incubated in the absence or presence of IPA. Every 4-5 days, two thirds of the total cells were removed and medium was changed. New medium with or without drug was added to bring up to the original volume. At days indicated, culture supernatant was withdrawn and tested for the production of HIV-1 by the RT activity. A 20,000 cpm or more TCA insoluble radioactivity per millilitre of supernatant was considered positive in the RT assay. Results"}}}
{"smiles": "CC(C)=CCNc1ncnc2c1ncn2[C@@H]1O[C@H](CO)[C@@H](O)[C@H]1O", "note": "[IPA, N^6-(Δ^2-isopentenyl) adenosine]", "values": [{"measurement": "activity, intracellular AM", "setting": "[1]; T. cruzi strain Sonya", "result": "++(Y,Sonya)"}, {"measurement": "activity, intracellular AM", "setting": "[1]; T. cruzi strain Y", "result": "++(Y,Sonya)"}, {"measurement": "B lymphocyte responsiveness", "setting": "[2]; 10 µM, third experiment", "result": "Increased"}, {"measurement": "B lymphocyte function", "setting": "[2]; 1000 µM down to 10 µM, third experiment (Figs. 7 and 8)", "result": "reductions"}, {"measurement": "B lymphocyte proliferation", "setting": "[2]; 0.1 - 10 µM, first experiment", "result": "No effect or an increase"}, {"measurement": "reduction in B lymphocyte function", "setting": "[2]; 30 -35 u.M, third experiment", "result": "~25", "unit": "%"}, {"measurement": "reduction of B lymphocyte proliferation", "setting": "[2]; between the 30 -10 u.M concentration levels, second experiment, approximate", "result": "30 -50%"}, {"measurement": "solubility in water", "setting": "[3]", "result": "does not readily dissolve in water"}, {"measurement": "T and B lymphocyte competence", "setting": "[4]", "result": "major rapid recovery"}, {"measurement": "reduction in MLC reactivity", "setting": "[5]; 1 µM", "result": 50, "unit": "%"}, {"measurement": "MLC reactivity", "setting": "[5]; 10 µM", "result": "No effect"}, {"measurement": "MLC reactivity", "setting": "[5]; 100 u.M", "result": "slight increase"}, {"measurement": "inhibition of HIV-1 production", "setting": "[6]", "result": "more than five log inhibition"}, {"measurement": "HIV PRODUCTION RT ACTIVITY cpm/ml", "setting": "[7]; DRUG CONCENTRATION 3.75 (unit not given), 15 DAYS p.d., without drug 3 x 10^5", "result": "2.3 x 10^5 cpm/ml"}, {"measurement": "HIV PRODUCTION RT ACTIVITY cpm/ml", "setting": "[7]; DRUG CONCENTRATION 3.75 (unit not given), 25 DAYS p.d., without drug 1.1 x 10^6", "result": "1.2 x 10^5 cpm/ml"}, {"measurement": "HIV PRODUCTION RT ACTIVITY cpm/ml", "setting": "[7]; DRUG CONCENTRATION 7.5 (unit not given), 15 DAYS p.d., without drug 3 x 10^5", "result": "2.9 x 10^5 cpm/ml"}, {"measurement": "HIV PRODUCTION RT ACTIVITY cpm/ml", "setting": "[7]; DRUG CONCENTRATION 7.5 (unit not given), 25 DAYS p.d., without drug 1.1 x 10^6", "result": "3.2 x 10^5 cpm/ml"}, {"measurement": "HIV PRODUCTION RT ACTIVITY cpm/ml", "setting": "[7]; DRUG CONCENTRATION 15 (unit not given), 15 DAYS p.d., without drug 3 x 10^5", "result": "2.3 x 10^5 cpm/ml"}, {"measurement": "HIV PRODUCTION RT ACTIVITY cpm/ml", "setting": "[7]; DRUG CONCENTRATION 15 (unit not given), 25 DAYS p.d., without drug 1.1 x 10^6", "result": "3.6 x 10^5 cpm/ml"}, {"measurement": "HIV PRODUCTION RT ACTIVITY cpm/ml", "setting": "[7]; DRUG CONCENTRATION 30 (unit not given), 15 DAYS p.d., without drug 3 x 10^5", "result": "2.9 x 10^5 cpm/ml"}, {"measurement": "HIV PRODUCTION RT ACTIVITY cpm/ml", "setting": "[7]; DRUG CONCENTRATION 30 (unit not given), 25 DAYS p.d., without drug 1.1 x 10^6", "result": "2.5 x 10^5 cpm/ml"}]}
